These results are taken from patent US20230414581A1, “SARM1 ENZYME ACTIVITY INHIBITOR AND USE THEREOF IN NEURODEGENERATIVE DISEASES” (ARTIVILA BIOPHARMA, priority 2020, published 2023).

Experiment [1] addresses T1, dN-SARM1 (Homo sapiens (Human), UniProt Q6SZW1). Nature of the experiment: In vitro biochemical test of inhibiting SARM1 enzyme activity (IC50), PC6 fluorescence method. The settings on record: dN-SARM1 0.05 μg/ml; 50 μM NAD, 50 μM PC6, 50 μM NMN activator; 10 min pre-incubation. As for the experimental part:
First, 200 μM of the compound was added to a 50 mM Tris-HCl (pH 7.5) solution containing 0.05 μg/ml dN-SARM1. Then half of the mixture was added to an equal volume of 50 mM Tris-HCl (pH 7.5) solution containing 0.05 μg/ml dN-SARM1 (pH 7.5) for mixing. The drug was diluted 6 times by analogy to final concentrations of 200, 100, 50, 25, 12.5, 6.25, 3.125 μM, or 200, 50, 12.5, 3.125, 0.78, 0.195, 0.049 μM. The solution without addition of inhibitor was control group. The above solutions were incubated at room temperature for 10 min.
Then 50 μM NAD, 50 μM PC6 as substrate and 50 μM NMN as activator were added to the dN-SARM1 protein incubated with inhibitor for 30 min of reaction at room temperature. The concentration of each component was the final concentration in the reaction system.
During the reaction process, PC6 fluorescence spectrum kinetics was detected by a microplate reader at an excitation wavelength and an emission wavelength of 390 nm and 520 nm, respectively. Finally, the activity of the protein was denoted by the reaction rate, and the half-inhibition concentration was calculated. The higher the reaction rate, the stronger the protein activity, and the lower the inhibition efficiency of the compound.

Experiment [2] concerns the target T1, dN-SARM1. Kind of experiment: In vitro biochemical test of inhibiting SARM1 enzyme activity (% inhibition rate), PC6 fluorescence method. The conditions noted are these: 50 μM compound; 0.05 μg/ml dN-SARM1; 50 μM NAD, 50 μM PC6, 50 μM NMN activator; 30 min room temperature. How it is done: The compounds were detected by PC6 fluorescence method [Chinese patent 202010528147.3] with the dN-SARM1 protein obtained in “Expression and purification of SARM1 protein” and “(4) Protein extraction” in Example 4 above.
First, 0.05 μg/ml dN-SARM1 and 50 μM compound were incubated in 50 mM Tris-HCl (pH 7.5) solution for 10 min. Then 50 μM NAD, 50 μM PC6 as substrate and 50 μM NMN as activator were added to the dN-SARM1 protein incubated with the drug for 30 min of reaction at room temperature. The concentration of each component was the final concentration in the reaction system.
During the reaction process, PC6 fluorescence spectrum kinetics was detected by a microplate reader at an excitation wavelength and an emission wavelength of 390 nm and 520 nm, respectively. Finally, the activity of the protein was denoted by the reaction rate. The higher the reaction rate, the stronger the protein activity, and the lower the inhibition efficiency of the compound.

Experiment [3] concerns the target SARM1 in iSARM1 (HEK293) cells (Homo sapiens (Human), UniProt Q6SZW1). Nature of the experiment: Inhibition of SARM1 activity in cell line with inducible overexpression of SARM1 (intracellular cADPR level). Format: cell-based. The settings on record: 50 μM inhibitor, 100 μM CZ-48 activator, 16 h, cADPR content. How it is done: Firstly, a 96-well culture dish was treated with 0.05 mg/ml polylysine for 5 min, and washed once with PBS. 3×10^4 iSARM1 (HEK293) cells were plated into the 96-well plate and cultured in a 37° C. and 5% incubator overnight. The next day, the cells were added with an inhibitor with a final concentration of 50 μM, cultured in the incubator for 1.5 h, then added with the activator CZ-48 with a final concentration of 100 μM, and co-cultured for 16 h. In addition, a control group without addition of CZ-48 or drug was set up. Finally, the intracellular cADPR level was detected to denote the activity of SARM1, and the inhibition rate of SARM1 by 50 μM inhibitor in cells was calculated.
The cADPR assay was conducted as follows. First, the cells were washed once with PBS, and added with 150 μl of pre-cooled 0.6M perchloric acid (PCA) for rapid lysis of the cells and precipitation of proteins. […]
The content of cADPR in the solution was determined by Cycling analysis, which was operated as follows. […] Each well of the 96-well plate was added with the reaction solution containing or not containing cyclase for reaction, and the reaction kinetic curve within 30 min (Ex:Em=544/599) was recorded. The average slope of the reaction was calculated, and the accurate cADPR content was calculated by converting the cADPR standard. […]

T1 sequence (Q6SZW1 28-724): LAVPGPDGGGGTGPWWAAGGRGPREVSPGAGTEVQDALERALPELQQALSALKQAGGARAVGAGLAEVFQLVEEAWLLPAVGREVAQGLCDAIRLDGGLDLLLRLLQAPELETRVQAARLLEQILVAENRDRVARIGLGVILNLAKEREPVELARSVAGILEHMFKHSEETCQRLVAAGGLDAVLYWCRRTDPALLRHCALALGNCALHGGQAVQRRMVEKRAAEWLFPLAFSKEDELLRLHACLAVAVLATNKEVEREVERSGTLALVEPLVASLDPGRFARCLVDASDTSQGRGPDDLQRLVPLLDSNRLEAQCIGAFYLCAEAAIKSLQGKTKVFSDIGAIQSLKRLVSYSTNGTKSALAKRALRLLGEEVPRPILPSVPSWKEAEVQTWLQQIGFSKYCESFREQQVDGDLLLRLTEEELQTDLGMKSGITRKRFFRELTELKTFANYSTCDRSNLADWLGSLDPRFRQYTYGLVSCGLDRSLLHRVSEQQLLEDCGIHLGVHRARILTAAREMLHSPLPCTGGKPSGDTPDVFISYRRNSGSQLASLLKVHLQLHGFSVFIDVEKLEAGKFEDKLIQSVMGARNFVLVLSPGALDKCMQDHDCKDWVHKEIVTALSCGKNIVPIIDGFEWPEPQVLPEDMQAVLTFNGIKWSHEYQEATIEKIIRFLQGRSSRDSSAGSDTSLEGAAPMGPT
SARM1 in iSARM1 (HEK293) cells, sequence (Q6SZW1 28-724): as above

For orientation: IC50 means the concentration at which inhibition is half-maximal. Low readings indicate greater potency, high ones weaker potency. As to `Cn1sc(=O)n(Cc2ccccc2)c1=O` [Compound 1], on dN-SARM1 [1], the IC50 was less than 1 µM.

Turning to `O=C(C=Cc1cccc(S(=O)(=O)Nc2ccccc2)c1)NO` [Compound 42], the “Inhibition rate of enzyme activity” value on dN-SARM1 [2] was 67.4%.

Turning to `O=C(/C=C/c1ccc(CNCCc2c(O)[nH]c3ccccc23)cc1)NO` [Compound 41], the “Inhibition rate of enzyme activity” value on dN-SARM1 [2] amounted to 67.3%.

On dN-SARM1 [1], `Cc1cccc(Cl)c1-n1sc(=O)n(CC2CC2)c1=O` [Compound 4] gave a 50% inhibitory concentration (IC50) of less than 1 µM.

Turning to `CCn1c(=O)/c(=C2\Sc3ccccc3N2C)s/c1=C\c1cccc[n+]1CC` [Compound 39], the IC50 at dN-SARM1 [1] fell in the range of 1 to 10 µM.

Regarding `N#Cc1ccc(Cl)cc1Cc1cc(Cl)ccc1C#N` [Compound 32], on dN-SARM1 [2], the “Inhibition rate of enzyme activity” value came to 93.7%. In addition, the 50% inhibitory concentration (IC50) on dN-SARM1 [1] was more than 10 µM.

For `O=c1sn(-c2ccccc2C(F)(F)F)c(=O)n1CC1CC1` [Compound 2], the Inhibition rate result in experiment [3] is given as “B (B: 25-50%)”. The compound also gave a half-inhibitory concentration (IC50) on dN-SARM1 [1] of less than 1 µM.

As to `Cc1ccc(-n2sc(=O)n(Cc3ccc(F)cc3)c2=O)cc1` [Compound 6], on dN-SARM1 [1], the IC50 is less than 1 µM.

`CC(C)c1ccc(-n2c(=O)sn(-c3ccc(SC(F)(F)F)cc3)c2=O)cc1` [Compound 8] gave an IC50 on dN-SARM1 [1] of 1 to 10 µM.

Regarding `Oc1cc(Cl)ccc1Oc1ccc(Cl)cc1Cl` [Compound 35], on dN-SARM1 [2], the “Inhibition rate of enzyme activity” value stood at 102%. At dN-SARM1 [1], the IC50 is more than 10 µM.

For the compound `O=C(CCCCCCNC(=O)c1cnc(N(c2ccccc2)c2ccccc2)nc1)NO` [Compound 43], the “Inhibition rate of enzyme activity” value at dN-SARM1 [2] was determined as 85.3%. Moreover, on dN-SARM1 [1], the IC50 is more than 10 µM.

With `CCN(CC)C(=S)SSC(=S)N(CC)CC` [Compound 37], the “Inhibition rate of enzyme activity” value on dN-SARM1 [2] came out at 101%. On dN-SARM1 [1], this compound showed an IC50 of less than 1 µM.

For the compound `Cn1c(=O)sn(-c2cccc3ccccc23)c1=O` [Compound 3], the IC50 at dN-SARM1 [1] was less than 1 µM.

As to `O=C(CCCCCCC(=O)Nc1ccccc1)NO` [Compound 40], on dN-SARM1 [2], the “Inhibition rate of enzyme activity” value stood at 75.6%.

With `N#Cc1c(Cl)cc(Cl)cc1Sc1cc(Cl)cc(Cl)c1O` [Compound 36], the “Inhibition rate of enzyme activity” value on dN-SARM1 [2] is 98.5%. Also, the IC50 against dN-SARM1 [1] was more than 10 µM.

For `O=c1sn(-c2cccc3ccccc23)c(=O)n1Cc1ccccc1` [Compound 7], the “Inhibition rate of enzyme activity” value on dN-SARM1 [2] turned out to be 98.6%. The IC50 on dN-SARM1 [1] is less than 1 µM.
